Data published in patent US5008401A, “Cyanine compounds” (Asahi Chemical Co., Ltd., priority 1990, dated 1991).

Columns and labels:
[1] = Test for solubility in solvent; assay type: physicochemical; details: for Solubility: methanol, room temperature
Method: Each of cyanine dyes as shown below in Table 2 was dissolved in methanol and the solubility was determined at room temperature with the results indicated below in Table 2.

[2] = Absorption maximum (λmax) and molar absorptivity (ε) in solution; assay type: physicochemical

Row | Solubility [1] | ε ([2]; diacetone alcohol) [cm⁻¹] | λmax ([2]; diacetone alcohol) [nm] | Structure (SMILES) | also measured
1 | up to 10 g/1 |  |  | CCOc1ccc2c(c1)C(C)(C)C(=CC=CC=CC=CC1=[N+](C)c3ccc(OCC)cc3C1(C)C)N2C [Compound A, reference compound] | solubility in solvents (in words) [1]: does not exhibit good solubility in solvents
2 | up to 10 g/1 |  |  | CCOc1ccc2c(c1)C(C)(C)C(=CC=CC=CC1=[N+](C)c3ccc(OCC)cc3C1(C)C)N2C [Compound B, reference compound] | solubility in solvents (in words) [1]: not satisfactory in solubility in solvents
3 | 30 g/1 |  |  | CCN1C(=CC=CC=CC2=[N+](CC)c3c(OC)cc(OC)cc3C2(C)C)C(C)(C)c2cc(OC)cc(OC)c21 [Preparation Example 1] | 
4 |  |  |  | CCOc1cc(OCC)c2c(c1)C(C)(C)C(=CC=CC=CC1=[N+](CC)c3c(OCC)cc(OCC)cc3C1(C)C)N2CC [Preparation Example 2] | ε ([2]; dichloromethane): 1.72×10^5 cm^-; λmax ([2]; dichloromethane): 698 nm
5 | at least 30 g/1 | 160000 | 702 | COCN1C(=CC=CC=CC2=[N+](COC)c3cc(OC)c(OC)cc3C2(C)C)C(C)(C)c2cc(OC)c(OC)cc21 [Preparation Example 3] | 
6 |  | 184000 | 679 | COc1cc(C)c2c(c1)C(C)(C)C(=CC=CC=CC1=[N+](CCO)c3c(C)cc(OC)cc3C1(C)C)N2CCO [Preparation Example 4] | 
7 |  | 185000 | 679 | COCCN1C(=CC=CC=CC2=[N+](CCOC)c3c(C)cc(OC)cc3C2(C)C)C(C)(C)c2cc(OC)cc(C)c21 [Preparation Example 5] | 
8 | at least 30 g/1 | 174000 | 683 | CCCN1C(=CC=CC=CC2=[N+](CCC)c3cc(C)c(OC)cc3C2(C)C)C(C)(C)c2cc(OC)c(C)cc21 [Preparation Example 6] | 
9 |  |  |  | CCOc1cc(C)c2c(c1)C(C)(C)C(=CC=CC=CC1=[N+](CC)c3c(C)cc(OCC)cc3C1(C)C)N2CC [Preparation Example 7] | ε ([2]; dichloroethane): 1.75×10^5 cm^-; λmax ([2]; dichloroethane): 681 nm
10 |  |  | 683 | CCCOc1cc(C)c2c(c1)C(C)(C)C(=CC=CC=CC1=[N+](CC)c3c(C)cc(OCCC)cc3C1(C)C)N2CC [Preparation Example 8] | 
11 |  | 182000 | 681 | CCc1cc(OC)cc2c1N(CC)C(=CC=CC=CC1=[N+](CC)c3c(CC)cc(OC)cc3C1(C)C)C2(C)C [Preparation Example 9] | 
12 |  | 162000 | 681 | COc1cc(C(C)C)c2c(c1)C(C)(C)C(=CC=CC=CC1=[N+](C)c3c(C(C)C)cc(OC)cc3C1(C)C)N2C [Preparation Example 10] | 
13 | at least 30 g/1 | 162000 | 703 | CCCCN1C(=CC=CC=CC2=[N+](CCCC)c3cc(OC)c(OC)cc3C2(C)C)C(C)(C)c2cc(OC)c(OC)cc21 [Preparation Example 11] | 
14 |  |  |  | CCCCN1C(=CC=CC=CC2=[N+](CCCC)c3cc(OC)c(OC)cc3C2(C)C)C(C)(C)c2cc(OC)c(OC)cc21 [Preparation Example 12] | ε ([2]; dichloromethane): 161000 cm⁻¹; λmax ([2]; dichloromethane): 699 nm
15 |  | 175000 | 693 | COc1cc(OC)c2c(c1)C(C)(C)C(=CC=CC=CC1=[N+](CCOC(C)=O)c3c(OC)cc(OC)cc3C1(C)C)N2CCOC(C)=O [Preparation Example 13] | 
16 | at least 30 g/1 | 180000 | 695 | COCCN1C(=CC=CC=CC2=[N+](CCOC)c3c(OC)cc(OC)cc3C2(C)C)C(C)(C)c2cc(OC)cc(OC)c21 [Preparation Example 14] | 
